The text below walks through data of ChEMBL document CHEMBL3039007, “Structure-based identification of OATP1B1/3 inhibitors” (Mol Pharmacol, 2013).

As a reminder, the residual activity is the signal under treatment as a percentage of the control signal.

The target in data set [1] is T1, Solute carrier organic anion transporter family member 1B1 (Homo sapiens, UniProt Q9Y6L6).
T1 sequence (Q9Y6L6 whole entry): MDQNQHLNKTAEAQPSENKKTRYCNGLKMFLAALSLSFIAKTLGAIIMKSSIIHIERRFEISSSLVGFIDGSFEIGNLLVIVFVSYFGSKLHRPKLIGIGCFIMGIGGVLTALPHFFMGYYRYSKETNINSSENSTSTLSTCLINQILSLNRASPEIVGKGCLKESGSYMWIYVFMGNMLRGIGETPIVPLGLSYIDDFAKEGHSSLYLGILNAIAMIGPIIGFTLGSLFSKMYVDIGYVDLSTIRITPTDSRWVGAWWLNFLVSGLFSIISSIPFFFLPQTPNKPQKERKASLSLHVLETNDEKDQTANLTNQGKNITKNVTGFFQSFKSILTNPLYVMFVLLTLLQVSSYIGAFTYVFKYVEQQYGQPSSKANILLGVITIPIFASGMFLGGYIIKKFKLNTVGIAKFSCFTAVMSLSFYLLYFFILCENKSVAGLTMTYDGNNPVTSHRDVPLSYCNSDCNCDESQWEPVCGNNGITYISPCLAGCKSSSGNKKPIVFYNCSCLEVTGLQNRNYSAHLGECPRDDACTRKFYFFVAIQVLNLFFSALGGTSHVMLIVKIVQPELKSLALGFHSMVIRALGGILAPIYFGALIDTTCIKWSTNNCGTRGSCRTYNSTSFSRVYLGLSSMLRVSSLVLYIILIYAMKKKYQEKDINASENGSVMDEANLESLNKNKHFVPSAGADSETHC
The conditions noted are these: chinese hamster, cho, 10 µM.

In data set [2] the target is T2, Solute carrier organic anion transporter family member 1B3 (Homo sapiens, UniProt Q9NPD5).
T2 sequence (Q9NPD5 whole entry): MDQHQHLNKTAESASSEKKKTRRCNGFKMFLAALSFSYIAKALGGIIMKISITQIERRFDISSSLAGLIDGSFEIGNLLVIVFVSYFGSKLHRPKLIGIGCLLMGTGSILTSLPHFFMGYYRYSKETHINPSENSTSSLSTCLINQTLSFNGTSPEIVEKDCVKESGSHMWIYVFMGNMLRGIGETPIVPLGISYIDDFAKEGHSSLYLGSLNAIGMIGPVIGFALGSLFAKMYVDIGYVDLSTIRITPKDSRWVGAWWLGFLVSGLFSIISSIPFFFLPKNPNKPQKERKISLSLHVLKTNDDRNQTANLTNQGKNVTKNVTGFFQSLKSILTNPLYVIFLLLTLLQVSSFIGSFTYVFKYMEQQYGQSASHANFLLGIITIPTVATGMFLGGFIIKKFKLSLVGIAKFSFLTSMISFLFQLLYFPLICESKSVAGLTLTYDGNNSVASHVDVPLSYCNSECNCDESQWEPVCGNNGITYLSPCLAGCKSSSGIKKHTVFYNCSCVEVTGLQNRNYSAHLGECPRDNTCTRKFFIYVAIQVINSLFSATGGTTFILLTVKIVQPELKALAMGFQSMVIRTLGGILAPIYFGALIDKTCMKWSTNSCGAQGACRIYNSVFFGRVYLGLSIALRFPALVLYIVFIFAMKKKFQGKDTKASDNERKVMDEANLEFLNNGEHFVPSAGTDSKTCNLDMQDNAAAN
The conditions noted are these: chinese hamster, cho, 10 µM.

Residues, ends and D or L forms follow the SMILES beside them. *: point of attachment. For = O=C*

For `CC(C)(C)NCC(O)c1cc(O)cc(O)c1.O=S(=O)(O)O` (configuration not stated), the residual activity in data set [1] amounted to 89.3%; in data set [2] it was 94.09%.

With `CC(=O)N[C@@H](CC(=O)O)C(=O)O`, the residual activity in data set [1] stood at 127.8163%; in data set [2] it was 103.6%.

For `COc1cccc(OC)c1C(=O)N[C@@H]1C(=O)N2[C@@H]1SC(C)(C)[C@@H]2C(=O)[O-].[Na+]`, the residual activity in data set [1] was determined as 68.38%; in data set [2], 108.8%.

For `COc1cnc(NS(=O)(=O)c2ccc(N)cc2)nc1`, the residual activity in data set [1] came out at 233.5%; in data set [2], 112.9%.

For `CC(C)CC(N(C)C)C1(c2ccc(Cl)cc2)CCC1.Cl` (configuration not stated), the residual activity is given as 96.94% in data set [1] and 113.9% in data set [2].

As for `CC(=O)N[C@@H](CCC(=O)O)C(=O)O`, the figures for the residual activity in data set [1] and in data set [2] were 59.95% and 77.8%, respectively.

On to `CC1=C(CC(=O)O)c2cc(F)ccc2/C1=C\c1ccc([S+](C)[O-])cc1` (configuration not stated), for which the figures for the residual activity in data set [1] and in data set [2] were 240.6% and 88.55%, respectively.

Regarding `CC(C)NCC(O)c1ccc2ccccc2c1.Cl` (configuration not stated), the figures for the residual activity in data set [1] and in data set [2] were 83.88% and 87.91%, respectively.

As to `CC(=O)NC(C(=O)O)C(C)(C)SN=O` (configuration not stated), the values for the residual activity in data set [1] and in data set [2] were 73.57% and 84.98%, respectively.

For the molecule `C[C@H](CCC(=O)O)[C@H]1CC[C@H]2[C@@H]3CC[C@@H]4CC(=O)CC[C@]4(C)[C@H]3C=C[C@]12C`, the results for the residual activity in data set [1] and in data set [2] were 40.37% and 203.2%, respectively.

Turning to `COC(=O)[C@@H]1OC(=O)[C@H]2O[C@]23[C@@]2(C)[C@H](CC[C@@]13C)[C@@]1(C)CCC(=O)C(C)(C)[C@@H]1C[C@H]2OC(C)=O`, the residual activity in data set [1] was 49.67%; in data set [2] it was 99.12%.

`C=C(C)CCC[C@@H](C)CCOC(C)=O`: the results for the residual activity in data set [1] and in data set [2] were 104.4% and 112.9%, respectively.

With `CC1(C)C=CC(=O)[C@]2(C)[C@H]3CC[C@@]4(C)[C@H](c5ccoc5)OC(=O)[C@H]5O[C@]54[C@]3(C)C(=O)C[C@@H]12`, the residual activity in data set [1] was 56.15%; in data set [2] it was 89.62%.

For `CC1(C)[C@H](O)C[C@H](O)[C@@]2(C)[C@H]3CC[C@]4(C)[C@@H](c5ccoc5)OC(=O)[C@H]5O[C@]54[C@]3(C)[C@H](O)C[C@@H]12`, the residual activity in data set [1] came to 48%; in data set [2] it was 84.19%.

Turning to `C=C1C2CC[C@H]3[C@]4(C)C[C@H](O[C@H]5O[C@H](CO)[C@@H](OS(=O)(=O)[O-])[C@H](OS(=O)(=O)[O-])[C@H]5OC(=O)CC(C)C)C[C@@H](C(=O)O)[C@H]4CC[C@]3(C2)[C@H]1O.[K+].[K+]`, the residual activity in data set [1] worked out at 100%; in data set [2], 92.24%.

For the molecule `C[C@H](CCC(=O)O)[C@H]1CC[C@H]2[C@@H]3CC[C@@H]4C[C@H](O)CC[C@]4(C)[C@H]3C=C[C@]12C`, the residual activity in data set [1] is recorded as 23.69%; in data set [2], 112%.

With `CC(=O)OCC(=O)[C@@]1(O)CC[C@H]2[C@@H]3CC[C@@H]4C[C@H](O)CC[C@]4(C)[C@H]3C(=O)C[C@@]21C`, the residual activity is 81.64% in data set [1] and 80% in data set [2].

On to `COC[C@]12CN(C=O)C3[C@@H]4[C@H](OC)[C@H]1[C@@]3([C@@H](OC)C[C@H]2O)[C@@H]1C[C@@]2(O)[C@H](OC(=O)c3ccccc3)[C@@H]1[C@]4(OC(C)=O)[C@@H](O)[C@@H]2OC`, for which the residual activity in data set [1] stood at 90.86%; in data set [2], 73.94%.

As to `C[C@]12CC[C@@H](OS(=O)(=O)[O-])C[C@@H]1CC[C@@H]1[C@@H]2CC[C@]2(C)C(=O)CC[C@@H]12.[Na+]`, the values for the residual activity in data set [1] and in data set [2] were 27.84% and 40.78%, respectively.

In the case of `CC(=O)O[C@H]1CC[C@@]2(C)[C@H](CC[C@@H]3[C@@H]2CC[C@]2(C)[C@@H]4[C@H](C[C@@H]32)O[C@]2(CC[C@@H](C)CO2)[C@H]4C)C1`, the residual activity was determined as 103.6% in data set [1] and 92.75% in data set [2].

Take `CC(=O)O[C@H]1CC[C@@]2(C)C(=CC[C@H]3[C@@H]4CC[C@H]([C@H](C)CCCC(C)C)[C@@]4(C)CC[C@@H]32)C1`: the residual activity in data set [1] is on record as 89.8%; in data set [2], 102.8%.

On to `O=C([O-])c1cc2cc(Cc3cccnc3)ccc2o1.[Na+]`, for which the residual activity in data set [1] was found to be 121%; in data set [2], 108.4%.

`C=C1C(=O)O[C@@H]2C3O[C@]3(C)CC/C=C(\C)CC[C@@H]12` (some centres not stated): the values for the residual activity in data set [1] and in data set [2] were 140.7% and 114.2%, respectively.

With `O=C1OC(=O)C2C3CCC(O3)C12` (configuration not stated), the residual activity in data set [1] was 106.4%; in data set [2] it was 93.17%.

Regarding `CSCC[C@H](NC=O)C(=O)N[C@@H](Cc1ccccc1)C(=O)O` (For-Met-Phe-OH), the residual activity in data set [1] was 38.77%; in data set [2], 104.4%.

In the case of `CC(C)C[C@H](NC(=O)CN)C(=O)N[C@@H](Cc1ccccc1)C(=O)O` (H-Gly-Leu-Phe-OH), the residual activity in data set [1] amounted to 118.4%; in data set [2], 114.9%.

For `CC1=CC(=O)CC(C)(C)C1(O)/C=C/C(C)=C\C(=O)O` (racemic) [ABSCISIC ACID], the residual activity in data set [1] stood at 70.85%; in data set [2], 92.91%.

In the case of `CC(C)CC(NC(=O)C(C)N)C(=O)O` (racemic) [ALANYL-dl-LEUCINE], the residual activity in data set [1] was 111.6%; in data set [2] it was 98.55%.

With `CC(N)C(=O)NC(Cc1ccccc1)C(=O)O` (racemic) [ALANYL-dl-PHENYLALANINE], the residual activity in data set [1] is 90.94%; in data set [2] it was 75.84%.

`COc1ccc(C2COc3cc(O)ccc3C2)c(OC)c1O` (racemic) [MUCRONULATOL(+/-)]: the residual activity is on record as 87.17% in data set [1] and 87.73% in data set [2].

In the case of `NC(C(=O)O)C(O)C(=O)O` (racemic) [d,l-threo-3-HYDROXYASPARTIC ACID], the residual activity in data set [1] came out at 70.17%; in data set [2], 82.91%.

With `CC(C)CC(NC(=O)OCC1c2ccccc2-c2ccccc21)C(=O)O` (single isomer, unassigned) [N- (9-FLUORENYLMETHOXYCARBONYL)-L-LEUCINE], the residual activity is reported as 32.48% in data set [1] and 48.34% in data set [2].

Turning to `C=CCCCCCCCCCCCC(O)CC(O)CO` (stereo in doubt; form 1) [AVOCADENE], the residual activity is recorded as 107.8% in data set [1] and 100.3% in data set [2].

Consider `C=CCCCCCCCCCCCC(O)CC(O)CO` (stereo in doubt; form 2) [AVOCADENE], for which the residual activity is 99.03% in data set [1] and 104.3% in data set [2].

As to `CNNC.Cl` [1,2-DIMETHYLHYDRAZINE HYDROCHLORIDE], the residual activity is reported as 108.5% in data set [1] and 99.77% in data set [2].

Take `COc1cc(OC)cc(OC)c1` [1,3,5-TRIMETHOXYBENZENE]: the residual activity turned out to be 90.48% in data set [1] and 68.6% in data set [2].
